Values of other authors in US6532437B1, “Crystalline frap complex” (Cornell Research Foundation, Inc., priority 1996, dated 2003).

Experiments:
[1] = test system: Chronic GVHD in BDF1 mice; conditions: BDF1 mice given DBA/2 spleen:lymph node cells
[2] = test system: spontaneous SLE in MRL/lpr-mice

SMILES | activity in CGVHD model [1] | effect on course of disease [2]
O=P1(N(CCCl)CCCl)NCCCO1 (centres unmarked) [cyclophosphamide] | active | can prevent and reverse the course of disease
C[C@]12C=CC(=O)C=C1CC[C@@H]1[C@@H]2[C@@H](O)C[C@@]2(C)[C@H]1CC[C@]2(O)C(=O)CO [prednisolone] | active | 
Cc1oncc1C(=O)Nc1ccc(C(F)(F)F)cc1 [leflunomide] | active | can prevent and reverse the course of disease
